From US11267786B2, “[3.3.1] bicyclo compounds as indoleamine 2,3-dioxygenase inhibitors” (Merck Sharp & Dohme Corp., priority 2018, dated 2022)

Key:
IDO1 [1] = molecular target: T1, IDO1 (Homo sapiens, UniProt P14902); assay: IDO1 Human Whole Blood Assay; type: cell-based; parameters: Human whole blood was drawn in sodium heparin coated tubes from healthy internal donors; from tissue; host or cells: human whole blood from healthy donors, stimulated with LPS and IFNγ; settings: human whole blood stimulated with LPS and IFNγ 100 ng/mL, 18 h, kynurenine by LC/MS/MS
Procedure: IDO1 Human Whole Blood Assay
Compounds to be tested were serially diluted in ten 3-fold steps in DMSO starting from 10 mM. 3 μL of compound dilutions or DMSO alone were then dispensed from the dilution plate into a polypropylene 96-well assay plate containing 97 μL of RPMI medium using an Echo 555 acoustic liquid handler (Labcyte). LPS and IFNγ were prepared in RPMI medium to a 10× of final conc. (1000 ng/mL), final concentration is 100 ng/mL.
Human whole blood was drawn in sodium heparin coated tubes from healthy internal donors. Two hundred forty μL of blood was transferred to each of the wells of a v-bottom 96 well plate. Thirty μL of compound was transferred from intermediate dilution plate, and incubated for 15 min. Thirty μL from stimulants was then transferred to blood and mixed thoroughly. Plate was covered with breathable membrane and incubated at 37° C. for overnight (18 h).
On day 2 isotope labeled standard of kynurenine and tryptophan was made in water at 10× concentration and 30 μL was added to the blood at 3 μM final concentration. […] Twenty μL of supernatant was carefully transferred to a 384 well plate containing 40 μL of 0.1% formic acid in water and analyzed by LC/MS/MS.
LC/MS/MS analyses were performed using Thermo Fisher's LX4-TSQ Quantum Ultra system. […] Compounds were titrated and IC50's were calculated by 4 parameter sigmoidal curve fitting formula.

IDO1 [2] = molecular target: T1, IDO1; assay: IDO1 Cellular Assay in Hela Cells Stimulated with IFNγ; type: cell-based; settings: 100 ng/mL IFNγ, 300 uM L-tryptophan, about 48 hours, fluorescence readout
Procedure: IDO1 Cellular Assay in Hela Cells Stimulated with IFNγ
Hela cells were cultured in complete Hela culture medium (90% EMEM, 10% heat-inactivated fetal bovine serum) and expanded to about 1×10^9 cells. The cells were then collected and frozen down at 1×10^7 cells/vial in 1 mL frozen medium (90% complete Hela culture medium, 10% DMSO)
Compounds to be tested were serially diluted in ten 3-fold steps in DMSO starting from 10 mM DMSO stocks in Echo low volume plate(s). Compound dilutions or DMSO alone were then dispensed from the dilution plate(s) into Greiner black 384-well assay plate(s) (catalog #781086, 50 nL/well) using an Echo 550 acoustic liquid handler (Labcyte).
Frozen Hela cells were thawed and transferred into Hela assay medium (99% complete Hela culture medium, 1% Pen/Strep) with 20 mL medium/vial of cells. The cells were spun down at 250 g in a table top centrifuge for 5 min and suspended in same volume of Hela assay medium. The cells were then counted and adjusted to a density of 2×10^5 cells/ml in Hela assay medium. Sterile L-tryptophan were added to the cells with final concentration of 300 uM L-tryptophan. A small aliquot (2 mL/plate) of Hela cells were set aside and were not treated with IFNγ, to serve as the Max-E control.
Hela cells with and without IFNγ were dispensed to the respective wells of 384-well assay plates containing the compounds. The plates were incubated for about 48 hours at a 37° C., 5% CO2 incubator. Afterwards, 12 μL of 0.5 M methyl isonipecotate in dimethyl sulfoxide were added into each well and the plates were sealed and incubated at 37° C. without CO2 overnight. The plates were centrifuged for 1 min at 200×g. The resulting fluorescence was measured in a Spectramax plate reader (Molecular Devices) with a 400 nm excitation filter and a 510 nm emission filter.
The fluorescence intensity of each well was corrected for the background observed in wells with non-IFNγ-treated cells and was expressed as a fraction of the intensity observed in wells of IFNγ-treated cells and DMSO only. Potencies were calculated by linear least squares fit to the four parameter logistic IC50 equation.

T1 sequence (P14902 whole entry): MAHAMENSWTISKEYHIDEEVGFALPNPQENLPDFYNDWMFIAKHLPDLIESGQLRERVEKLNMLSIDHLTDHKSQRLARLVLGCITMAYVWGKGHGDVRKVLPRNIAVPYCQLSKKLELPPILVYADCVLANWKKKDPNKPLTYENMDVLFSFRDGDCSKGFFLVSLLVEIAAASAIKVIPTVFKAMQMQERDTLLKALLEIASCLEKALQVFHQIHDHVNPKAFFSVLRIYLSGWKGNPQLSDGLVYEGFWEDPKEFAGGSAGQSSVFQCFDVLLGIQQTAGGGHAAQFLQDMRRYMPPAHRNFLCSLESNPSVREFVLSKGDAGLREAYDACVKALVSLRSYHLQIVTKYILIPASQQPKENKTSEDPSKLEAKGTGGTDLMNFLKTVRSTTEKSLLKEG

| SMILES | IC50 (IDO1 [1]) | IC50 (IDO1 [2]) |
| --- | --- | --- |
| O=C(Nc1ccc(Cl)cc1)C1CCC2CC1CCC2c1ccnc2ccc(F)cc12 (single isomer, unassigned) [Example 1, N-(4-chlorophenyl)-6-(6-fluoroquinolin-4-yl)bicyclo[3.3.1]nonane-2-carboxamide] | 306 nM | 2 nM |
| O=C(Nc1ccc(Cl)cc1)C1CCC2CC1CCC2c1ccnc2ccc(F)cc12 (single isomer, unassigned) [Example 2, N-(4-chlorophenyl)-6-(6-fluoroquinolin-4-yl)bicyclo[3.3.1]nonane-2-carboxamide] | – | 260 nM |
| O=C(Nc1ccc(Cl)cc1)C1CCC2CC1CCC2c1ccnc2ccc(F)cc12 (single isomer, unassigned) [Example 3, N-(4-chlorophenyl)-6-(6-fluoroquinolin-4-yl)bicyclo[3.3.1]nonane-2-carboxamide] | – | 127 nM |
| O=C(Nc1ccc(Cl)cc1)C1CCC2CC1CCC2c1ccnc2ccc(F)cc12 (single isomer, unassigned) [Example 4, N-(4-chlorophenyl)-6-(6-fluoroquinolin-4-yl)bicyclo[3.3.1]nonane-2-carboxamide] | – | 2510 nM |
| O=C(NC1CCC2CC1CCC2c1ccnc2ccc(F)cc12)c1ccc(Cl)cc1 (single isomer, unassigned) [Example 5, 4-Chloro-N-(6-(6-fluoroquinolin-4-yl)bicyclo[3.3.1]nonan-2-yl)benzamide] | – | 770 nM |
| O=C(NC1CCC2CC1CCC2c1ccnc2ccc(F)cc12)c1ccc(Cl)cc1 (single isomer, unassigned) [Example 6, 4-Chloro-N-(6-(6-fluoroquinolin-4-yl)bicyclo[3.3.1]nonan-2-yl)benzamide] | – | 1640 nM |
| O=C(NC1CCC2CC1CCC2c1ccnc2ccc(F)cc12)c1ccc(Cl)cc1 (single isomer, unassigned) [Example 7, 4-Chloro-N-(6-(6-fluoroquinolin-4-yl)bicyclo[3.3.1]nonan-2-yl)benzamide] | – | 25 nM |
| O=C(NC1CCC2CC1CCC2c1ccnc2ccc(F)cc12)c1ccc(Cl)cc1 (single isomer, unassigned) [Example 8, 4-Chloro-N-(6-(6-fluoroquinolin-4-yl)bicyclo[3.3.1]nonan-2-yl)benzamide] | – | 2500 nM |
